Among the test systems are BT-549; Hs-578T; SNB-78; KM-20L2; LXFL 529; DMS-114; HOP-18; M19-MEL.
What all share (test): DTP human tumour cell line panel, 48 h

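Five compound concentrations were applied to cells in 96-well plates for 48 hours; endpoints were derived by simple linear interpolation of the resulting dose-response curve. GI50 marks 50% less growth.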 Active and inactive are the calls of the source. No stated cut-off is given here; in the data, active = GI50 up to about 1.1 µM and inactive = higher. Some results are limits rather than exact numbers.

Take `N#C/C(C(=O)Nc1ccc(Cl)cc1)=C(/N)N1CCOCC1`: the GI50 (in general, the concentration at which growth is held to half of that of the control) in the test on BT-549 was > 100 µM (inactive).
Turning to `COc1ccc2c3c1OC1C(OC)(OC)C=C[C@@]4(Br)[C@@H](C2)N(CC2CC2)CC[C@]314` (stereo not given in full), the GI50 in the test on Hs-578T is 41.7 µM (inactive).
On to `Oc1ccc(O)c(CNc2ccccc2)c1`, for which the GI50 with BT-549 was 7.93 µM (inactive); in the test with Hs-578T, 25.5 µM (inactive).
On to `O=[N+]([O-])c1cccc2nccc(NCCCO)c12`, for which the GI50 is 8.93 µM (inactive) in the test with BT-549 and 13.1 µM (inactive) in the test with Hs-578T.
`c1cc(Sc2nc(Sc3ccncc3)nc(Sc3ccncc3)n2)ccn1`: the GI50 in the test with BT-549 and with Hs-578T was > 100 µM (inactive) throughout.
As to `[O-]c1c[n+](CC[n+]2cc([O-])on2)no1`, the GI50 with BT-549 and in the test on Hs-578T was > 100 µM (inactive) throughout.
With `COc1ccc2cc(C(C)C(=O)N3C(=O)OCC3(C)C)ccc2c1` (stereo not given), the GI50 in the test on BT-549 is > 100 µM (inactive).
On to `CN1CCN([C@H]2C[C@H]3[C@@H]4CC=C5C[C@@H](O)CC[C@]5(C)[C@H]4CC[C@]3(C)[C@H]2O)CC1`, for which the GI50 with BT-549 was > 81.8 µM (inactive); in the test on Hs-578T, > 100 µM (inactive).
As to `COc1ccc(C(=O)C(C(=O)C(=O)NCCCNC(=O)C(=O)C(C(=O)c2ccc(OC)cc2)c2ccc(OC)cc2)c2ccc(OC)cc2)cc1` (stereo not given), the GI50 in the test with SNB-78, in the test on KM-20L2, in the test with LXFL 529, in the test with DMS-114 and with HOP-18 was > 100 µM (inactive) in each case.
As to `COc1cc([C@@H]2c3cc4c(cc3[C@H](OC3OC5COC(C(C)C)OC5C(O)C3O)C3COC(=O)[C@@H]32)OCO4)cc(OC)c1OC` (stereo not given in full), the GI50 is 5.52 µM (inactive) with BT-549 and 3.17 µM (inactive) with Hs-578T.
For `c1ccc2c(CN3CCN(Cc4c[nH]c5ccccc45)CC3)c[nH]c2c1`, in that order: 22 µM (inactive) and 15.9 µM (inactive).
For `O=C1C(Cl)=C(OCCCl)C(=O)c2c(O)ccc(O)c21`, the GI50 with BT-549 is 13.3 µM (inactive).
Turning to `CC(=O)OCC1OC(N2C(=S)N[C@H]([C@@H](O)[C@H](O)[C@H](O)CO)[C@H]2O)C(OC(C)=O)C(OC(C)=O)C1OC(C)=O` (stereo not given in full), the GI50 with BT-549 and with Hs-578T was > 100 µM (inactive) throughout.
Consider `[O-]c1on[n+]2c1c(Nc1ccc(Cl)cc1)nc1ccccc12`, for which the GI50 in the test on SNB-78, in the test with KM-20L2, with LXFL 529, in the test on DMS-114 and with M19-MEL was > 100 µM (inactive) throughout.
Regarding `CCCC(=O)Nc1cc(C(=O)N2C[C@H]3C[C@@]34C2=CC(=O)c2[nH]cc(C)c24)n(COC)c1`, the GI50 was 0.253 µM (active) in the test with BT-549 and 0.512 µM (active) in the test with Hs-578T.
On to `CO[C@H]1O[C@@H]2CO[C@@H](c3ccccc3)O[C@H]2[C@@H]2C/C=C\CCC[C@@]12O`, for which the GI50 in the test on BT-549 is 20.2 µM (inactive).
As to `O=C(O)CCC(NC(=O)c1ccc(Nc2cnc3cc(C(F)(F)F)ccc3n2)cc1)C(=O)O` (stereo not given), the GI50 in the test on SNB-78, in the test with KM-20L2, with DMS-114 and in the test with HOP-18 was > 100 µM (inactive) each time.
With `COC(=O)C1(CCCCCBr)CCCCCCCCCCC1=O` (stereo not given), the GI50 with Hs-578T was > 100 µM (inactive).
As to `COC(=O)C(C(=O)C(=O)NC1Nc2ccc(C)cc2S1)c1nc2ccc(Cl)cc2nc1O` (stereo not given), the GI50 in the test with BT-549 and with Hs-578T was > 100 µM (inactive) in each case.
Turning to `CC[C@]1(Cc2ccc(OC)c(OC)c2)C=[N+]([O-])O[C@H](OCc2ccccc2)[C@@H]1OC(C)=O`, in the test with Hs-578T, the GI50 was 20.4 µM (inactive).
Consider `O=Cc1c2ccccc2n2ccc3c4ccccc4[nH]c3c12`, for which the GI50 in the test with BT-549 and with Hs-578T was > 10 µM (inactive) throughout.
For `O=C(Cn1cc(F)c(=O)[nH]c1=O)C12CC3CC(CC(C3)C1)C2`, the GI50 in the test with BT-549 and in the test with Hs-578T was > 100 µM (inactive) each time.
With `COc1ccc(-c2nc(-c3cc4ccccc4oc3=O)cs2)cc1`, the GI50 was > 100 µM (inactive) in the test with BT-549 and 40.9 µM (inactive) in the test on Hs-578T.
Take `CCC1(C)N=c2c(ncn2N=C(C)C)=C(C(N)=O)N1` (stereo not given): the GI50 with Hs-578T is > 100 µM (inactive).
As for `CC(C)(C)OC(=O)CCC1NC(=O)[C@@H]2Cc3c([nH]c4ccccc34)C(c3ccccc3)N2C1=O` (stereo not given in full), the GI50 in the test with BT-549 is 28.6 µM (inactive); in the test with Hs-578T, 16.7 µM (inactive).
On to `[O-][Cl+3]([O-])([O-])O.c1ccc(C2=NN2c2ccccc2)cc1`, for which the GI50 in the test on BT-549 is > 100 µM (inactive).
`C=C(Cl)C(Cl)(CBr)CCC(Cl)C(C)C` (stereo not given): the GI50 in the test with BT-549 is 14.3 µM (inactive); in the test with Hs-578T it was 1.16 µM (inactive).
On the same counts, the results for `O=C(N/C(=C\c1ccccc1)c1nc2ccccc2c(=O)o1)c1ccccc1` are 20 µM (inactive) and 22.1 µM (inactive).
`O=C1OC(c2ccccc2)=N/C1=C\c1cn[nH]n1`: in the test with Hs-578T, the GI50 was > 100 µM (inactive).
On to `O=C1Nc2ccccc2S/C1=C\c1cccc(C(F)(F)F)c1`, for which the GI50 in the test with BT-549 and in the test on Hs-578T was > 100 µM (inactive) in each case.
Regarding `CC1=NN(C(=O)c2ccc(Cl)cc2)C(=O)/C1=C/c1cccc([N+](=O)[O-])c1`, the GI50 in the test with SNB-78, in the test with KM-20L2, in the test on LXFL 529, with DMS-114 and with M19-MEL was > 100 µM (inactive) in each case.
For `O=C(N/N=C(COc1ccccc1Cl)\N=C\c1cccnc1)c1ccncc1`, the GI50 in the test on BT-549 is > 100 µM (inactive); in the test with Hs-578T, 66.2 µM (inactive).
Consider `COC(=N)c1ncn(Cc2ccccc2)c1N`, for which the GI50 in the test with Hs-578T is > 100 µM (inactive).
`O=C(CSc1nc2ccc([N+](=O)[O-])cc2s1)c1ccc2ccccc2c1`: the GI50 in the test on BT-549 was > 100 µM (inactive); in the test with Hs-578T it was 89.5 µM (inactive).
Take `COC(=O)[C@@H](N1C(=O)c2ccccc2C1=O)C1(C)CC(Cl)=NO1` (stereo not given in full): the values for the GI50 in the test with BT-549 and in the test on Hs-578T were 42.7 µM (inactive) and 29.8 µM (inactive), respectively.
Take `CC(C)c1ccc2c(c1)C=C1OC(=O)[C@]3(C)CCC[C@@]2(C)C13` (stereo not given in full): the GI50 with BT-549 and in the test on Hs-578T was > 100 µM (inactive) throughout.
`O=C1N(CN2CCOCC2)CN(CN2CCOCC2)C(=O)N1Cc1ccccc1`: in the test with BT-549, the GI50 is 21.6 µM (inactive).
With `CCOC(=O)C1=C(c2ccccc2)C12N(Cc1ccccc1)C(=O)C2(c1ccccc1)c1ccccc1` (stereo not given), the figures for the GI50 with BT-549 and in the test on Hs-578T were 24.8 µM (inactive) and 36.9 µM (inactive), respectively.
On the same counts, the results for `COc1ccc(N2C(=O)C3ON(C(C(N)=O)c4ccccc4)C(c4cc5ccccc5c5ccccc45)C3C2=O)cc1` (stereo not given) are 24.7 µM (inactive) and > 50 µM (inactive).
In the case of `COC1(OC)CCC2(C)OC(c3ccccc3)C1O2` (stereo not given), the GI50 in the test on KM-20L2, in the test with LXFL 529 and with DMS-114 was > 100 µM (inactive) in each case.
On to `Cc1ccc(NC(=O)/C=C/c2ccccc2)c(C)c1`, for which the figures for the GI50 in the test with BT-549 and with Hs-578T were > 100 µM (inactive) and 21.7 µM (inactive), respectively.
For the compound `COc1ccc(-c2cc(N3CCN(c4ccc(Cl)cc4)CC3)c(C#N)c(=O)o2)cc1`, the GI50 is 11.7 µM (inactive) in the test with SNB-78; > 100 µM (inactive) in the test on KM-20L2; 16.7 µM (inactive) in the test on LXFL 529; 7.41 µM (inactive) in the test with DMS-114; 4.24 µM (inactive) with HOP-18.
For `COc1cc(CCN(C)C)cc(OC)c1OC`, the GI50 with BT-549 and in the test with Hs-578T was > 100 µM (inactive) throughout.
As to `CCOC(=O)c1csc(-c2nc(CCNC(=O)c3ccccc3)sc2Cl)n1`, the GI50 is 32.7 µM (inactive) in the test on BT-549 and > 100 µM (inactive) in the test on Hs-578T.
As for `COC(=O)Cc1cc(=O)n2c([nH]c3ccccc32)c1C#N`, the GI50 in the test with SNB-78, in the test on KM-20L2, in the test on DMS-114 and in the test on M19-MEL was > 100 µM (inactive) each time.
Turning to `CCN(CC)CCCNc1nncc2c(C)c3[nH]c4ccccc4c3cc12`, the GI50 was 1.34 µM (inactive) with BT-549 and 0.865 µM (active) in the test on Hs-578T.
As for `CC1(CO)C(O)CCC2(C)C1CCC1CC3CC12CCC3(O)CO` (stereo not given), the GI50 is > 100 µM (inactive) in the test with SNB-78, 2.34 µM (inactive) in the test with DMS-114, 18.6 µM (inactive) in the test with HOP-18 and 26.2 µM (inactive) with M19-MEL.
For the compound `c1c(N2CCOCC2)s[s+]c1N1CCOCC1`, the GI50 in the test on SNB-78, with KM-20L2, in the test on LXFL 529, in the test on DMS-114 and with HOP-18 was > 100 µM (inactive) throughout.
As for `OC1C[C@H](c2ccccc2)C2(C(O)c3ccccc3C2O)[C@@H](c2ccccc2)C1` (stereo not given in full), the GI50 with BT-549 and with Hs-578T was > 100 µM (inactive) throughout.
On to `CC1=CC(=O)N(n2c(C)n[nH]c2=O)C1=O`, for which the GI50 with BT-549 and with Hs-578T was > 100 µM (inactive) in each case.
For `O=C(O)CCC1(c2ccccc2)NC(=O)NC1=O` (stereo not given), the GI50 with BT-549 and in the test on Hs-578T was > 100 µM (inactive) each time.
Consider `CSCCCCCCCCCCOc1ccc(C=C2C(=C(C#N)C#N)c3ccccc3C2=C(C#N)C#N)cc1`, for which the GI50 in the test with Hs-578T was 20.5 µM (inactive).
Same read-out and setting: the figure for `N#C/C(=C/NC(=S)NCc1ccccc1)C(N)=O` is > 100 µM (inactive).
Turning to `CN(C)C(=O)O/N=C1/C(=C2/C(=O)Nc3ccccc32)Nc2ccccc21`, the GI50 in the test on BT-549 is 13.4 µM (inactive); in the test on Hs-578T it was 9.35 µM (inactive).
Regarding `O=C1OC2(c3ccc(O)cc3Oc3cc(O)ccc32)c2c1c(-c1ccccc1)c(-c1ccccc1)c(-c1ccccc1)c2-c1ccccc1`, the GI50 was 23.6 µM (inactive) in the test with BT-549 and 22 µM (inactive) with Hs-578T.
As for `CC1(C)S[C@@H]2[C@H](NC(=O)CCC[C@@H](N)C(=O)O)C(=O)N2[C@H]1C(=O)O` [ADICILLIN], the GI50 in the test with SNB-78 was > 50 µM (inactive); in the test with KM-20L2, > 24.8 µM (inactive); in the test on HOP-18, > 50 µM (inactive); in the test on M19-MEL, > 50 µM (inactive).
With `CC(C)(C)N(Cc1ccc2c(c1)OCO2)C(=O)/C=C\[S+]([O-])c1ccccc1` (stereo not given), the GI50 in the test with BT-549 was 2.43 µM (inactive); in the test with Hs-578T, 2.33 µM (inactive).
`COc1ccc2nc(-c3ccc(O)cc3)sc2c1`: in the test on BT-549, the GI50 was 18.7 µM (inactive).

The record behind these values is ChEMBL document CHEMBL1201862, “PubChem BioAssay data set” (2004).
